Assays:
[1] = tested on: mouse tumor-infiltrating lymphocytes (TILs); assay: IFN-γ production in mouse TILs cocultured with MC38 tumor cells; format: cell-based
Protocol: We examined the ability of these 5 anti-CTLA-4 compounds to stimulate interferon-γ (IFN-γ) production in mouse tumor-infiltrating lymphocytes (TILs). MC38 tumors grown in C57BL/6 mice were extracted to obtain CD45^+ TILs.
(§1) The ability of compounds to be immunostimulatory was measured by coculturing mouse-derived TILs with MC38 tumors grown in C57BL/6 mice. Tumors were digested using a Tumor Dissociation Kit (Miltenyi Biotec, 130-095-929). After cell isolation, TILs were extracted with a MagniSort Mouse CD45 isolation kit protocol (Invitrogen, 8802-6865-74). TILs were cocultured with MC38 cells for 48 h, and the expression levels of IFN-γ were detected with the AlphaLISA Mouse IFN-γ Detection Kit (PerkinElmer, AL501C). Human DCs and T cells from different patients were prepared and treated as described. For MC38 and human cancer cells treated with compounds, the CellTiter-Glo Luminescent Cell Viability Assay (Promega, G7570) was used to measure the viability.

[2] = Body weight of treated hCTLA-4 mice; format: in vivo; details: MC38-inoculated hCTLA-4 mice, treated vs control
Source text: (§2) In hCTLA-4 mice, the ECD of the mouse Ctla-4 gene has been replaced with the human counterpart, yet the resulting protein still interacts effectively with mouse CD80 and CD86 [42]. […] Next, we measured the mice’s levels of serum cardiac troponin I type 3 (TNNI3), a marker associated with ipilimumab-induced irAEs. We found elevated serum TNNI3 levels in mice treated with ipilimumab, anti-PD-1, or anti-PD-1 plus D11, but not in mice treated with D11 alone (Fig. 4e). It is unclear why D11 monotherapy appeared to have a protective effect in comparison with anti-PD-1 alone. We also treated 2 human cells lines, HCT116 and MDA-MB231, with D11 and 5-fluorouracil, an antimetabolite drug that is widely used for the treatment of colorectal cancer. […] Thus, it is likely that D11 is weakly toxic to tumor cells and that its antitumor effects are largely due to its regulation of the immune response.
(§3) We next investigated analogs of the 5 anti-CTLA-4 compounds for possible refinement.

[3] = tested on: interaction of CTLA-4 with CD80 and CD86; assay: Luciferase reporter assay, CTLA-4 effector Jurkat T cells with Raji antigen-presenting cells; format: cell-based, human
Source text: We first evaluated the inhibitory impacts of the compounds against the interaction between CTLA-4 and CD80 using an amplified luminescent proximity homogeneous (Alpha)LISA assay. In this assay, a biotinylated CD80 binds to streptavidin-coated alpha donor beads, while anti-His AlphaLISA acceptor beads capture His-tagged CTLA-4. Upon binding of CD80 to CTLA-4, the donor and acceptor beads draw near, thus excitation of the donor bead leads to the release of singlet oxygen molecules. Consequently, an energy transfer cascade occurs in the acceptor beads, culminating in an intense peak of light emission at 615 nm (Fig. 1a). […] The compounds’ inhibitory activity against CTLA-4 was confirmed through a luciferase reporter assay involving 2 genetically engineered cell lines. First, we developed a CTLA-4 effector cell line using Jurkat T cells expressing human CTLA-4 and a luciferase reporter driven by a native promoter responsive to T-cell receptor (TCR)/CD28 activation. We also managed to establish an adjacent antigen-presenting cell line utilizing Raji cells, which are capable of expressing constitutively active engineered proteins on their surfaces without requiring antigens for effectivity. The Raji cells will also be able to naturally produce endogenous levels of both CD80 as well as CD86 molecules within the target APCs themselves as they transclude from one host to another. […]

[4] = tested on: human DCs with allogeneic peripheral blood mononuclear cells; assay: Human DCs cultured with allogeneic PBMCs, flow cytometry; format: cell-based
Protocol: CD80 and CD86 on dendritic cells (DCs) interact with CD28 or CTLA-4 on T cells to regulate T-cell activation.
as §1
Flow cytometry was used to measure subcellular populations in tumors. All flow cytometry analyses were performed using either an LSR II flow cytometer (BD Biosciences) or a Northern Lights-3000 flow cytometer (Cytek) and analyzed with FlowJo (Treestar, Inc.). All flow analyses were representative of at least 3 independent experiments using […] CD proteins 4, 8, and 25 (CD4, 116003; CD8, 100707; and CD25, 102011); Foxp3 (126409); and IFN-γ (506506) flow antibodies (Biolegend). Antimouse and antihuman CTLA-4 antibodies were purchased from BioLegend (106313) and Invitrogen (46-1529-42).

MC38 tumors [5] = assay: MC38 syngeneic tumors in C57BL/6 mice; format: in vivo
Protocol: C57BL/6 mice were purchased from the Charles River Laboratories. In hCTLA-4 mice, the exons encoding for the ECD and transmembrane domains of murine CTLA-4 were replaced with the human versions. All mice were maintained at the Research Animal Facility of Baylor College of Medicine, and all studies were conducted under an animal protocol approved by the Baylor College of Medicine Institutional Animal Care and Use Committee. Mice were challenged with 0.5 million MC38 colorectal cancer cells passaged the previous day at 75% confluence. For the prophylactic model, ipilimumab or small-molecule treatment began 1 day after tumor cell inoculation. For the therapeutic model, ipilimumab or small-molecule treatment was initiated 7 to 17 days after the injection of tumor cells, depending upon when the tumors reached an average size of approximately 100 mm^3. Tumor volumes were calculated with the formula volume = (width^2 × length)/2. Measurements were recorded every 2 to 3 days. For the histologic analyses, the internal organs, including the livers, kidneys, lungs, colons, and salivary glands, were fixed in 10% paraformal-dehyde for at least 24 h, cut from paraffin blocks in […] sections using a Microm HM 315 microtome, and mounted on SuperFrost Plus slides (Roth). Slides were stained with hematoxylin and eosin (Shandon Varistain [24–4] Automatic Stainer). For the histopathologic analysis of the internal organs harvested from mice that had been treated with therapeutic compounds or control antibodies, stained sections were prepared from the formalin-fixed tissue and were assessed in a blinded fashion.

MC38 tumors [6] = assay: MC38 tumors in humanized CTLA-4 (hCTLA-4) mice; format: in vivo; details: for development of MC38 tumors: therapeutic, A9 and D11 25 mg/kg
Source text: as §2
Using another cohort of hCTLA-4 mice inoculated with MC38 cells, we treated animals (n = 5 per group) with ipilimumab, anti-PD-1, anti-PD-1 plus D11, D11 alone, or vehicle in the same dosages as used previously. Some animals’ tumors were collected approximately 10 days after the last treatment dose, whereas for the remaining animals, the tumors were allowed to grow (Supplementary Fig. S7). […] Single-cell suspensions from tumors were sorted to obtain CD45^+ immune cells, which were then subjected to single-cell RNA sequencing (scRNAseq) and TCR sequencing. Next, the immune cell populations were compared across the samples (Fig. 5b, c). […] Another interesting observation from the scRNAseq analysis was that the differential expression of membrane-type 1 matrix metalloproteinase, which is known for its role as a key regulator in cell migration in tissues, was associated with D11 treatment. This finding could lead to a possible new mechanism of action, besides macrophage recruitment, to drive the search for anticancer compounds.
as §3
C57BL/6 mice were purchased from the Charles River Laboratories. In hCTLA-4 mice, the exons encoding for the ECD and transmembrane domains of murine CTLA-4 were replaced with the human versions. […] Tumor volumes were calculated with the formula volume = (width^2 × length)/2. Measurements were recorded every 2 to 3 days. […] For the histopathologic analysis of the internal organs harvested from mice that had been treated with therapeutic compounds or control antibodies, stained sections were prepared from the formalin-fixed tissue and were assessed in a blinded fashion.

tumor development = tested on: tumor development; design: method as in PMID 35254416; details: doses of 2 to 200 mg/kg; cited from earlier work
[7] = tested on: serum cardiac troponin I type 3 (TNNI3); assay: Serum TNNI3 in treated mice; format: in vivo; details: marker of ipilimumab-induced irAEs
Source text: as §2

[8] = tested on: CD45+ immune cells from MC38 tumors; assay: Single-cell RNA and TCR sequencing of CD45+ tumor immune cells; format: in vivo, hCTLA-4 mice; details: scRNAseq of CD45+ tumor cells
Source text: Using another cohort of hCTLA-4 mice inoculated with MC38 cells, we treated animals (n = 5 per group) with ipilimumab, anti-PD-1, anti-PD-1 plus D11, D11 alone, or vehicle in the same dosages as used previously. Some animals’ tumors were collected approximately 10 days after the last treatment dose, whereas for the remaining animals, the tumors were allowed to grow (Supplementary Fig. S7). […] Single-cell suspensions from tumors were sorted to obtain CD45^+ immune cells, which were then subjected to single-cell RNA sequencing (scRNAseq) and TCR sequencing. Next, the immune cell populations were compared across the samples (Fig. 5b, c). […]
Tumors from CTLA-4-humanized MC38 syngeneic mice (n = 3–5 mice) were extracted for single-cell suspension using a gentleMACS Octo Dissociator (Miltenyi Biotec). […] The acquired scRNAseq reads from the 10X Genomics platform were aligned to a reference genome (mm10) using Cell Ranger (V.7.1, 10X Genomics) default parameters. The reads and cells were further filtered with Seurat (V.4.0.3) in R (V.4.1.0). […] The clonality of the TCR repertoire was calculated as a 1-Pielou index value using the formula 1+ ∑(i=1 to n) (pi*ln(pi))/ln(n), where pi is the frequency of clone i for a sample of n unique clones; this metric was normalized to the number of unique clones and ranges from 0 to 1. […]

[9] = prophylactic setting, 25 mg/kg i.p.
[10] = start at approximately 100 mm^3

Compound: C/C(=N/OCc1ccccc1)c1nc(-c2ccccc2)[nH]c1C [A9]
- INF-γ stimulation ex vivo (MC38) ([1]; Table 3 summary, Mouse CTLA-4/CD80): Y
- body weight [2]: no significant weight loss
- promoter-mediated luminescence (blockade of CTLA-4 with CD80 and CD86) [3]: resulted in promoter-mediated luminescence
- Tconv (%) ([4]; 10 μM, 6 days): 43.1%
- Treg (%) ([4]; 10 μM, 6 days): 12.4%
- Tconv (%) ([4]; 50 μM, 6 days): 49.6%
- Treg (%) ([4]; 50 μM, 6 days): 20.9%
- Tconv: Treg decrease (human cells) ([4]; Table 3 summary, Human CTLA-4/CD80): Y
- numbers of tumor-infiltrating Treg cells (MC38 tumors [5]; 25 mg/kg i.p.): reduced
- MC38 models (MC38 tumors [5]; Table 3 summary, Mouse or human CTLA-4/mouse CD80): Y
- tumor growth after rechallenge with 200,000 MC38 cells (MC38 tumors [5]; mice that completely rejected tumors, vs control group): slower
- animal survival (MC38 tumors [5]; [9]): prolonged animal survival
- complete tumor rejection / complete response (MC38 tumors [5]; [9]): Four of 10
- tumor growth (MC38 tumors [5]; prophylactic setting, 4 200-μg doses (25 mg/kg) i.p. every other day, start 1 day after inoculation): drastically inhibited tumor growth
- tumor growth (MC38 tumors [5]; therapeutic setting, start at tumor volume approximately 100 mm^3): significantly reduced tumor growth
- tumor-inhibition activity in hCTLA-4 mice compared with non-humanized C57BL/6 mice (MC38 tumors [6]; mouse, in vivo): superior tumor-inhibition activity
- development of MC38 tumors (MC38 tumors [6]; [10]): substantially inhibited

Compound: Cc1c(Nc2nccc3cc(CN4CC[C@@H](O)C4)cnc23)cccc1-c1cccc(-c2nc3cc(CN4CC[C@@H](C(=O)O)C4)cc(C#N)c3o2)c1C [INCB086550]
- tumor development (tumor development): inhibited tumor development

Compound: ipilimumab: an anti-CTLA-4 antibody, first immune checkpoint blockade therapy to receive FDA approval [reference compound]
- IFN-γ production ([1]; 3-μg/ml doses): substantially stimulated
- promoter-mediated luminescence (blockade of CTLA-4 with CD80 and CD86) [3]: resulted in promoter-mediated luminescence
- Tconv (%) ([4]; 5 μg/ml, 6 days): 42.7%
- Tconv/Treg ratio ([4]; 5 μg/ml, 6 days): 3.44
- Treg (%) ([4]; 5 μg/ml, 6 days): 12.4%
- serum TNNI3 levels [7]: elevated
- tumor inhibition / therapeutic efficacy (MC38 tumors [6]; second cohort (Fig. 5a), start at approximately 100 mm^3): inhibited tumors
- development of MC38 tumors (MC38 tumors [6]; [10]): inhibited tumors
- tumor-infiltrating macrophages [8]: only moderately affected

Source: publication PMC10838660, “Artificial intelligence-powered discovery of small molecules inhibiting CTLA-4 in cancer” (BJC reports, 2024)
